Legend:
[1] = test system: Hepatitis C virus; experiment: Antiviral activity against HCV 1b infected in human HuH7 cells assessed as inhibition of viral sub-genomic replication by EG(delta-4AB)SEAP reporter protein assay; format: functional, organism-based, Hepacivirus hominis; conditions: genotype 1b, Huh-7
[2] = Cytotoxicity against human HuH7 cells; format: cell-based, Huh-7
[3] = Selectivity index, ratio of CC50 for human HuH7 cells to EC50 for HCV 1b; design: species or system Huh-7

Row | SMILES | EC50 [1] [µM] | CC50 [2] [µM] | Ratio CC50/EC50 [3]
1 | CC(C)(C)c1ccc(C(=O)NC(=S)N2CCc3c(OCCCCCOc4ccc(Cl)cc4)cccc32)cc1 | 1.95 | > 50 | >26
2 | Cc1ccc(C(=O)NC(=S)N2CCc3c(OCCCCCOc4ccc(Cl)cc4)cccc32)cc1 | 1.94 | > 50 | >26
3 | O=C(NC(=S)N1CCc2c(OCCCCCOc3ccc(Cl)cc3)cccc21)c1ccoc1 | 1.72 | 20.1 | 12
4 | O=C(NC(=S)N1CCc2c(OCCCCCOc3ccc(Cl)cc3)cccc21)C1CCCCC1 | 42.5 | > 50 | >1
5 | O=C(NC(=S)n1ccc2c(OCCCCCOc3ccc(Cl)cc3)cccc21)c1ccccc1 | 4.06 | 29.5 | 7
6 | S=C(NC(=S)N1CCc2c(OCCCCCOc3ccc(Cl)cc3)cccc21)Oc1ccccc1 | > 50 | > 50 | >1
7 | O=C(CCc1ccccc1)NC(=S)N1CCc2c(OCCCCCOc3ccc(Cl)cc3)cccc21 | 13.4 | > 50 | >4
8 | CCCC(=O)NC(=S)N1CCc2c(OCCCCCOc3ccc(Cl)cc3)cccc21 | 31.6 | > 50 | 2
9 | NC(=S)N1CCCc2c(OCCCCCOc3cccc4ccccc34)cccc21 | > 50 | > 50 | >1
10 | CN(C)c1ccc(C(=O)NC(=S)N2CCc3c(OCCCCCOc4ccc(Cl)cc4)cccc32)cc1 | 42.4 | > 50 | >1
11 | O=C(NC(=S)N1CCc2c(OCCCCCOc3ccc(Cl)cc3)cccc21)c1ccc2ccccc2c1 | 2.16 | > 50 | >23
12 | O=C(NC(=S)N1CCc2cccc(OCc3ccccc3)c21)c1ccccc1 | > 50 | > 50 | >1
13 | NC(=S)n1ccc2c(OCCCCCOc3ccc(Cl)cc3)cccc21 | 24.5 | 24.7 | 1
14 | O=C(NC(=S)N1CCc2c(OCc3ccccc3)cccc21)c1ccccc1 | 3.18 | > 50 | >16
15 | O=C(NC(=S)N1CCc2c(OCCCCCOc3ccc(Cl)cc3)cccc21)c1ccno1 | 2.06 | 37.1 | 18
16 | O=C(NC(=S)N1CCc2c(OCCCCCOc3ccc(Cl)cc3)cccc21)C1CCCC1 | 25.4 | > 50 | >2
17 | O=C(NC(=S)N1CCc2c(OCCCCCOc3ccc(Cl)cc3)cccc21)Oc1ccccc1 | > 50 | > 50 | >1
18 | O=C(NC(=S)N1CCc2c(OCCCCCOc3ccc(Cl)cc3)cccc21)c1cccnc1 | 2.37 | 11.1 | 5
19 | COc1ccc(C(=O)NC(=S)N2CCc3c(OCCCCCOc4ccc(Cl)cc4)cccc32)cc1 | 2.02 | 34.4 | 17
20 | NC(=S)N1CCc2c(OCCCCCOc3ccc(Cl)cc3)cccc21 | 4.71 | > 50 | >11
21 | O=C(NC(=S)N1CCc2c(OCCCCCOc3ccc(Cl)cc3)cccc21)c1ccccc1[N+](=O)[O-] | 1.65 | > 50 | >30
22 | O=C(NC(=S)N1CCc2cc(OCc3ccccc3)ccc21)c1ccccc1 | 4.81 | 45.2 | 9
23 | O=C(NC(=S)N1CCc2ccc(OCc3ccccc3)cc21)c1ccccc1 | 5.05 | 43.8 | 9
24 | O=S(=O)(NC(=S)N1CCc2c(OCCCCCOc3ccc(Cl)cc3)cccc21)c1ccccc1 | > 50 | > 50 | >1

The next compounds have a lower EC50 [1] than those just listed; values first:

Row | EC50 [1] [µM] | SMILES | CC50 [2] [µM] | Ratio CC50/EC50 [3]
25 | 1.23 | O=C(NC(=S)N1CCc2c(OCCCCCOc3ccc(Cl)cc3)cccc21)c1ccc(C(F)(F)F)cc1 | 32.7 | 27
26 | 1.1 | O=C(NC(=S)N1CCc2c(OCCCCCOc3ccc(Cl)cc3)cccc21)c1cc2ccccc2s1 | > 50 | >45
27 | 1.02 | O=C(NC(=S)N1CCc2c(OCCCCCOc3ccc(Cl)cc3)cccc21)c1ccsc1 | > 50 | >49
28 | 0.95 | O=C(NC(=S)N1CCc2c(OCCCCCOc3ccc(Cl)cc3)cccc21)c1ccc(F)cc1 | 31.1 | 33
29 | 0.88 | O=C(NC(=S)N1CCc2c(OCCCCCOc3ccc(Cl)cc3)cccc21)c1ccc(Br)cc1 | 29.1 | 33
30 | 0.79 | O=C(NC(=S)N1CCc2c(OCCCCCOc3ccc(Cl)cc3)cccc21)c1ccccc1 | > 50 | > 63
31 | 0.72 | O=C(NC(=S)N1CCc2c(OCCCCCOc3ccc(Cl)cc3)cccc21)c1ccc([N+](=O)[O-])cc1 | 13.6 | 19
32 | 0.69 | O=C(NC(=S)N1CCc2c(OCCCCCOc3ccc(Cl)cc3)cccc21)c1ccc(Cl)cc1 | 21.7 | 31
33 | 0.66 | O=C(NC(=S)N1CCc2c(OCCCCCOc3ccc(Cl)cc3)cccc21)c1cccs1 | 10.7 | 16
34 | 0.58 | O=C(NC(=S)N1CCc2c(OCCCCCOc3ccc(Cl)cc3)cccc21)c1ccco1 | 4.62 | 8
35 | 0.58 | O=C(NC(=S)N1CCc2c(OCCCCCOc3ccc(Cl)cc3)cccc21)c1cccc([N+](=O)[O-])c1 | 12.1 | 21
36 | 0.57 | N#Cc1cccc(C(=O)NC(=S)N2CCc3c(OCCCCCOc4ccc(Cl)cc4)cccc32)c1 | 9.75 | 17
37 | 0.51 | N#Cc1ccc(C(=O)NC(=S)N2CCc3c(OCCCCCOc4ccc(Cl)cc4)cccc32)cc1 | > 50 | >98
38 | 0.49 | NC(=S)Nc1cccc(Oc2ccccc2)c1 | – | –

From ChEMBL document CHEMBL1152383, “Design and synthesis of indole, 2,3-dihydro-indole, and 3,4-dihydro-2H-quinoline-1-carbothioic acid amide derivatives as novel HCV inhibitors” (Bioorg Med Chem Lett, 2009)
